Test system: AGS cells (KRAS^G12D)
Assay: Detection of cell proliferation in vitro by MTT/MTS method (cell activity experiment)
Assay type: cell-based
Conditions: AGS cells; MTT/MTS; 3 days of drug treatment; read-out: AGS IC50
Procedure, shortened: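 After 3-day compound exposure (final DMSO 0.5%), viability of AGS (KRAS G12D) cells, plated 1000/well one day before dosing, was measured at 490 nm following 4 h MTT or MTS incubation. IC50 was fitted from dose–effect curves relative to DMSO-treated wells.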

| IC50 [nM] | Structure (SMILES) |
| --- | --- |
| > 2500 | C#Cc1c(F)ccc2cc(O)cc(-c3ccc4c(N5CCC(N)C5)nc(OC[C@@]56CCCN5C[C@H](F)C6)nc4c3F)c12 (stereo partly drawn) [Example 116, 4-(4-(3-aminopyrrolidin-1-yl)-8-fluoro-2-(((2R, 7aS)-2-fluorotetrahydro-1H-pyrrolizin-7a(5H)-yl)methoxy)quinazolin-7-yl)-5-ethynyl-6-fluoronaphthalen-2-ol] |
| > 2500 | C#Cc1c(F)ccc2cc(O)cc(-c3ccc4c(N5C[C@H]6CC[C@@H](C5)[C@@H]6O)nc(OC[C@@]56CCCN5C[C@H](F)C6)nc4c3F)c12 [Example 118, (1R,5S,8R)-3-(7-(8-ethynyl-7-fluoro-3-hydroxynaphthalen-1-yl)-8-fluoro-2-(((2R,7aS)-2-fluorotetrahydro-1H-pyrrolizin-7a(5H)-yl)methoxy)quinazolin-4-yl)-3-azabicyclo [3.2.1]octan-8-ol] |

Same assay, conditions: Homo sapiens, AGS, 72 h, AGS cells; MTT/MTS; 3 days of drug treatment; read-out: AGS IC50

| Structure (SMILES) | IC50 [nM] |
| --- | --- |
| C#Cc1c(F)ccc2cc(O)cc(-c3ccc4c(N5C[C@H]6CC[C@@H](C5)N6)nc(OC[C@]56CCCN5[C@@H](COC(=O)N(C)C)CC6)nc4c3F)c12 [Example 96, ((3R,7aR)-7a-(((4-((1R,5S)-3,8-diazabicyclo[3.2.1]octan-3-yl)-7-(8-ethynyl-7-fluoro-3-hydroxynaphthalen-1-yl)-8-fluoroquinazolin-2-yl)oxy)methyl)hexahydro-1H-pyrrolizin-3-yl)methyl dimethylcarbamate] | 7.9 |
| CCc1c(F)ccc2cc(O)cc(-c3ccc4c(N5C[C@H]6CC[C@@H](C5)N6)nc(OC[C@]56CCCN5[C@@H](COC(=O)N(C)C)CC6)nc4c3F)c12 [Example 97, ((3R,7aR)-7a-(((4-((1R,5S)-3,8-diazabicyclo[3.2.1]octan-3-yl)-7-(8-ethyl-7-fluoro-3-hydroxynaphthalen-1-yl)-8-fluoroquinazolin-2-yl)oxy)methyl)hexahydro-1H-pyrrolizin-3-yl) methyl dimethylcarbamate] | 18 |
| C#Cc1c(F)ccc2cccc(-c3ccc4c(N5C[C@H]6CC[C@@H](C5)N6)nc(OC[C@]56CCCN5[C@@H](COC(=O)N(C)C)CC6)nc4c3F)c12 [Example 98, ((3R,7aR)-7a-(((4-((1R,5S)-3,8-diazabicyclo[3.2.1]octan-3-yl)-7-(8-ethynyl-7-fluoronaphthalen-1-yl)-8-fluoroquinazolin-2-yl)oxy)methyl)hexahydro-1H-pyrrolizin-3-yl) methyl dimethylcarbamate] | 129 |
| C#Cc1c(F)ccc2cc(O)cc(-c3ccc4c(N5C[C@H]6CC[C@@H](C5)N6)nc(OCC5(CN6CCCC6)CC5)nc4c3F)c12 [Example 99, 4-(4-((1R,5S)-3,8-diazabicyclo[3.2.1]octan-3-yl)-8-fluoro-2-((1-(pyrrolidin-1-ylmethyl)cyclopropyl)methoxy)quinazolin-7-yl)-5-ethynyl-6-fluoronaphthalen-2-ol] | 8.8 |
| CCc1c(F)ccc2cc(O)cc(-c3ccc4c(N5C[C@H]6CC[C@@H](C5)N6)nc(OCC5(CN6CCCC6)CC5)nc4c3F)c12 [Example 100, 4-(4-((1R,5S)-3,8-diazabicyclo[3.2.1]octan-3-yl)-8-fluoro-2-((1-(pyrrolidin-1-ylmethyl)cyclopropyl)methoxy)quinazolin-7-yl)-5-ethyl-6-fluoronaphthalen-2-ol] | 21 |
| Oc1cc(-c2ccc3c(N4C[C@H]5CC[C@@H](C4)N5)nc(OCC4(CN5CCCC5)CC4)nc3c2F)c2c(F)c(F)ccc2c1 [Example 101, 4-(4-((1R,5S)-3,8-diazabicyclo[3.2.1]octan-3-yl)-8-fluoro-2-((1-(pyrrolidin-1-ylmethyl)cyclopropyl)methoxy)quinazolin-7-yl)-5,6-difluoronaphthalen-2-ol] | 9.4 |
| Oc1cc(-c2ccc3c(N4C[C@H]5CC[C@@H](C4)N5)nc(OCC4(CN5CCCC5)CC4)nc3c2F)c2c(F)cccc2c1 [Example 102, 4-(4-((1R,5S)-3,8-diazabicyclo[3.2.1]octan-3-yl)-8-fluoro-2-((1-(pyrrolidin-1-ylmethyl)cyclopropyl)methoxy)quinazolin-7-yl)-5-fluoronaphthalen-2-ol] | 33 |
| C#Cc1cccc2cc(O)cc(-c3ccc4c(N5C[C@H]6CC[C@@H](C5)N6)nc(OCC5(CN6CCCC6)CC5)nc4c3F)c12 [Example 103, 4-(4-((1R,5S)-3,8-diazabicyclo[3.2.1]octan-3-yl)-8-fluoro-2-((1-(pyrrolidin-1-ylmethyl)cyclopropyl)methoxy)quinazolin-7-yl)-5-ethynylnaphthalen-2-ol] | 29 |
| CCc1cccc2cc(O)cc(-c3ccc4c(N5C[C@H]6CC[C@@H](C5)N6)nc(OCC5(CN6CCCC6)CC5)nc4c3F)c12 [Example 104, 4-(4-((1R,5S)-3,8-diazabicyclo[3.2.1]octan-3-yl)-8-fluoro-2-((1-(pyrrolidin-1-ylmethyl)cyclopropyl)methoxy)quinazolin-7-yl)-5-ethylnaphthalen-2-ol] | 57 |
| C#Cc1c(F)ccc2cc(O)cc(-c3ccc4c(N5CC6CCCC(C5)N6)nc(OC[C@@]56CCCN5C[C@H](F)C6)nc4c3F)c12 [Example 105, 4-(4-(3,9-diazabicyclo [3.3.1]nonan-3-yl)-8-fluoro-2-(((2R,7aS)-2-fluorotetrahydro-1H-pyrrolizin-7a(5H)-yl)methoxy)quinazolin-7-yl)-5-ethynyl-6-fluoronaphthalen-2-ol] | 80 |
| C#Cc1cccc2cc(O)cc(-c3ccc4c(N5CC6CCCC(C5)N6)nc(OC[C@@]56CCCN5C[C@H](F)C6)nc4c3F)c12 [Example 106, 4-(4-(3,9-diazabicyclo [3.3.1]nonan-3-yl)-8-fluoro-2-(((2R,7aS)-2-fluorotetrahydro-1H-pyrrolizin-7a(5H)-yl)methoxy)quinazolin-7-yl)-5-ethynylnaphthalen-2-ol] | 120 |
| C#Cc1c(F)ccc2cc(O)cc(-c3ccc4c(N5CC6CC(C5)N6)nc(OC[C@@]56CCCN5C[C@H](F)C6)nc4c3F)c12 [Example 107, 4-(4-(3,6-diazabicyclo [3.1.1]heptan-3-yl)-8-fluoro-2-(((2R,7aS)-2-fluorotetrahydro-1H-pyrrolizin-7a(5H)-yl)methoxy)quinazolin-7-yl)-5-ethynyl-6-fluoronaphthalen-2-ol] | 105 |
| C#Cc1c(F)ccc2cc(O)cc(-c3ccc4c(N5CC6CCC5CN6)nc(OC[C@@]56CCCN5C[C@H](F)C6)nc4c3F)c12 (stereo partly drawn) [Example 108, 4-(4-(2,5-diazabicyclo [2.2.2]octan-2-yl)-8-fluoro-2-(((2R,7aS)-2-fluorotetrahydro-1H-pyrrolizin-7a(5H)-yl)methoxy)quinazolin-7-yl)-5-ethynyl-6-fluoronaphthalen-2-ol] | 40.5 |
| C#Cc1c(F)ccc2cc(O)cc(-c3ccc4c(N5CCC6(CCCS6)CC5)nc(OC[C@@]56CCCN5C[C@H](F)C6)nc4c3F)c12 [Example 109, 5-ethynyl-6-fluoro-4-(8-fluoro-2-(((2R,7aS)-2-fluorotetrahydro-1H-pyrrolizin-7a(5H)-yl)methoxy)-4-(1-thia-8-azaspiro[4.5]decan-8-yl)quinazolin-7-yl)naphthalen-2-ol] | > 2500 |
| C#Cc1c(F)ccc2cc(O)cc(-c3ccc4c(N5CCC6(CCCS6(=O)=O)CC5)nc(OC[C@@]56CCCN5C[C@H](F)C6)nc4c3F)c12 [Example 110, 8-(7-(8-ethynyl-7-fluoro-3-hydroxynaphthalen-1-yl)-8-fluoro-2-(((2R, 7aS)-2-fluorotetrahydro-1H-pyrrolizin-7a(5H)-yl)methoxy)quinazolin-4-yl)-1-thia-8-azaspiro [4.5]decane 1,1-dioxide] | > 2500 |
| C#Cc1c(F)ccc2cc(O)cc(-c3ccc4c(N5CCC(N)C5)nc(OC[C@@]56CCCN5C[C@H](F)C6)nc4c3F)c12 (stereo partly drawn) [Example 111, 4-(4-(3-aminopyrrolidin-1-yl)-8-fluoro-2-(((2R,7aS)-2-fluorotetrahydro-1H-pyrrolizin-7a(5H)-yl)methoxy)quinazolin-7-yl)-5-ethynyl-6-fluoronaphthalen-2-ol] | > 2500 |
| C#Cc1c(F)ccc2cc(O)cc(-c3ccc4c(N5CC6CCCNC6C5)nc(OC[C@@]56CCCN5C[C@H](F)C6)nc4c3F)c12 (stereo partly drawn) [Example 112, 5-ethynyl-6-fluoro-4-(8-fluoro-2-(((2R,7aS)-2-fluorotetrahydro-1H-pyrrolizin-7a(5H)-yl)methoxy)-4-(octahydro-6H-pyrrolo[3,4-b]pyridin-6-yl)quinazolin-7-yl) naphthalen-2-ol] | > 2500 |
| C#Cc1c(F)ccc2cc(O)cc(-c3ccc4c(N5CC6CCNC6C5)nc(OC[C@@]56CCCN5C[C@H](F)C6)nc4c3F)c12 (stereo partly drawn) [Example 113, 5-ethynyl-6-fluoro-4-(8-fluoro-2-(((2R,7aS)-2-fluorotetrahydro-1H-pyrrolizin-7a(5H)-yl)methoxy)-4-(hexahydropyrrolo[3,4-b]pyrrol-5(1H)-yl)quinazolin-7-yl) naphthalen-2-ol] | > 2500 |
| C#Cc1c(F)ccc2cc(O)cc(-c3ccc4c(N5CCC6(CC5)CO[C@@H](C)[C@H]6N)nc(OC[C@@]56CCCN5C[C@H](F)C6)nc4c3F)c12 [Example 114, 4-(4-((3S,4S)-4-amino-3-methyl-2-oxa-8-azaspiro[4.5]decan-8-yl)-8-fluoro-2-(((2R, 7aS)-2-fluorotetrahydro-1H-pyrrolizin-7a(5H)-yl)methoxy)quinazolin-7-yl)-5-ethynyl-6-fluoronaphthalen-2-ol] | > 2500 |
| C#Cc1cccc2cc(O)cc(-c3ccc4c(N5CCC6(CC5)CO[C@@H](C)[C@H]6N)nc(OC[C@@]56CCCN5C[C@H](F)C6)nc4c3F)c12 [Example 115, 4-(4-((3S,4S)-4-amino-3-methyl-2-oxa-8-azaspiro[4.5]decan-8-yl)-8-fluoro-2-(((2R, 7aS)-2-fluorotetrahydro-1H-pyrrolizin-7a(5H)-yl)methoxy)quinazolin-7-yl)-5-ethynylnaphthalen-2-ol] | > 2500 |
| C#Cc1c(F)ccc2cc(O)cc(-c3ccc4c(N5CCC(NS(C)(=O)=O)C5)nc(OC[C@@]56CCCN5C[C@H](F)C6)nc4c3F)c12 (stereo partly drawn) [Example 117, N-(1-(7-(8-ethynyl-7-fluoro-3-hydroxynaphthalen-1-yl)-8-fluoro-2-(((2R, 7aS)-2-fluorotetrahydro-1H-pyrrolizin-7a(5H)-yl)methoxy)quinazolin-4-yl)pyrrolidin-3-yl)methanesulfonamide] | > 2500 |
